For ten molecules, IC50 and melting point results are on record in patent US8188078B2 (Sanofi-Aventis, priority 2007, dated 2012).

One series has as its target RON (Homo sapiens, UniProt Q04912). As to the kind of experiment: Test B: HTRF RON test in 96-well format. The class given is biochemical. Here is the method: B) HTRF RON Test in 96-Well Format
The inhibitory potency (IC50) of molecules on the enzymatic activity of kinase phosphorylation RON is determined by the HTRF technique. The activity of the kinase is evaluated by measuring the phosphorylation of the substrate polyGAT by the enzyme, in the presence of ATP.
Final RON 5 nM is incubated in the presence of the molecule to be tested (for a final concentration range from 0.17 nM to 10 μM, final DMSO 3%) in buffer MOPS 10 mM pH 7, DTT 1 mM, Tween 20 0.01%. This pre-incubation is performed in 96 half-well black plates in a volume of 35 μl for 30 minutes at room temperature.
The reaction is initiated by adding 15 μl of a mixture of substrates constituted of biotinylated poly-(GAT) 1 μg/ml final and ATP 10 μM final in the presence of MgCl2 5 mM final for a final volume of 50 μl.
After incubation for 30 min at room temperature, the reaction is stopped with 30 μl of a mixture of Hepes 100 mM final pH 7, potassium fluoride 400 mM final, BSA 0.1% and EDTA 133 mM in the presence of 80 ng per well of antibodies Streptavidin ITS-XL665 Cis-Bio Int. and 18 ng per well of anti-phosphotyrosine PT66 labelled with europium cryptate.
After incubation for 2 hours at room temperature, reading is carried out at 2 wavelengths 620 nm and 665 nm in a Genios TECAN reader for the TRACE/HTRF technique and the percentage inhibition is calculated according to the 665/620 ratios.

The subject of the next series is MKN45 cells. As to the kind of experiment: Test D: cellular proliferation by 14C-thymidine pulse, MKN45 cells. The note with it: Homo sapiens, MKN-45, cellular proliferation by 14C-thymidine pulse; cell line not stated (HCT116 or MKN45). Format: cell-based. Here is the method: D) Measurement of Cellular Proliferation by 14C-Thymidine Pulse
The cells are sown in Cytostar 96-well plates under 180 μl for 4 hours at 37° C. and 5% CO2: The HCT116 cells at a rate of 2500 cells per well in DMEM medium+10% foetal calf serum+1% of L-glutamine and the MKN45 cells at a rate of 7500 cells per well in RPMI medium+10% foetal calf serum+1% of L-glutamine. After said incubation for 4 hours, the products are added under 10 μl in 20-times concentrated solution according to the method of dilution stated for ELISA. The products are tested at 10 concentrations in duplicate from 10000 nM to 0.3 nM in steps of 3.
After treatment for 72 h, add 10 μl of 14C-thymidine at 10 μCi/ml to obtain 0.1 μCi per well. The incorporation of 14C-thymidine is measured on a Micro-Beta (Perkin-Elmer) after 24 hours of pulse and 96 h of treatment.
All the stages of the test are automated on the BIOMEK 2000 or TECAN stations.

The target in a further series is T1, c-MET (Homo sapiens, UniProt P08581).
T1 construct: The recombinant DNA His-Tev-MET (956-1390) in pFastBac(Invitrogen); His (N, cleaved yes); Tev (TEV protease site) (N, cleaved yes); made in house; host or cells: SF21 insect cells (baculovirus, pFastBac)
T1 sequence (P08581 956-1390): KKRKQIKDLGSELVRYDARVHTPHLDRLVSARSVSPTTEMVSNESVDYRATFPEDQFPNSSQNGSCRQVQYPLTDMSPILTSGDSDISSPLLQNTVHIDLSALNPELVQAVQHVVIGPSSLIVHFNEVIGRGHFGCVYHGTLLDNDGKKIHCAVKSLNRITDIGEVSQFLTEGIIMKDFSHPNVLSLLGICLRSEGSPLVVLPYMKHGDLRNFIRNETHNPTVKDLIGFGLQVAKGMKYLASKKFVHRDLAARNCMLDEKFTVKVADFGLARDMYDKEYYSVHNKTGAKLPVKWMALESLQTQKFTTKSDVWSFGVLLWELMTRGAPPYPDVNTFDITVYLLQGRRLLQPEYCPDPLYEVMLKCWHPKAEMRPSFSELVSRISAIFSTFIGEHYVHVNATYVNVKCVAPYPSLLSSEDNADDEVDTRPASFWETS
As to the kind of experiment: Test A: HTRF Met test in 96-well format. The class given is biochemical. Here is the method:
I) Expression and Purification of MET, Cytoplasmic Domain
The recombinant DNA His-Tev-MET (956-1390) in pFastBac(Invitrogen) is transfected in insect cells and after several stages of viral amplification, the final stock of baculovirus is tested for expression of the protein of interest.
After infection for 72 h at 27° C. with the recombinant virus, the SF21 cell cultures are harvested by centrifugation and the cellular deposits are stored at −80° C.
The cellular deposits are resuspended in the lysis buffer (buffer A [50 mM HEPES, pH 7.5, 250 mM NaCl, Glycerol 10%, TECP 1 mM]; +cocktail of protease inhibitors Roche Diagnostics without EDTA, ref 1873580), stirred at 4° C. until homogeneous, then lysed mechanically using apparatus of the “Dounce” type.
After centrifugation, the lysis supernatant is incubated for 2 h at 4° C. with Nickel Chelate resin (His-Trap 6 Fast Flow™, GE HealthCare). After washing with 20 volumes of Tp A, the suspension is packed in a column, and the proteins are eluted with a gradient of buffer B ([…]+290 mM imidazole).
The fractions containing the protein of interest with a view to electrophoretic analysis (SDS PAGE) are collected, concentrated by ultrafiltration (cut-off 10 kDa) and injected in an exclusion chromatography column (Superdex™ 200, GE HealthCare) equilibrated with buffer A.
After enzymatic cleavage of the tag Histidine, the protein is reinjected in a new IMAC Nickel Chelate chromatography column (His-Trap 6 Fast Flow™, GE HealthCare) equilibrated with Buffer A. The fractions eluted with a gradient of buffer B and containing the protein of interest after electrophoresis (SDS PAGE), are finally collected and stored at −80° C.
For the production of autophosphorylated protein, the preceding fractions are incubated for 1 h at room temperature after adding ATP 2 mM, MgCl2 2 mM, and Na3VO4 4 mM. After stopping the reaction with 5 mM of EDTA, the reaction mixture is injected in a HiPrep desalting column (GE HealthCare) equilibrated beforehand with buffer A+Na3VO4 4 mM; the fractions containing the protein of interest (SDS PAGE analysis) are collected and stored at −80° C. The degree of phosphorylation is verified by mass spectrometry (LC-MS), and by peptide mapping.
A) HTRF Met test in 96-well format
In a final volume of 50 μl of enzymatic reaction mixture, final c-MET 5 nM is incubated in the presence of the molecule to be tested (for a final concentration range from 0.17 nM to 10 μM, final DMSO 3%) in buffer MOPS 10 mM pH 7.4, DTT 1 mM, Tween 20 0.01%. The reaction is initiated by the substrate solution to obtain the final concentrations of poly-(GAT) 1 μg/ml, ATP 10 μM and MgCl2 5 mM. After incubation for 10 min at room temperature, the reaction is stopped with a mix of 30 μl to obtain a final solution of Hepes 50 mM pH 7.5, potassium fluoride 500 mM, BSA 0.1% and EDTA 133 mM in the presence of 80 ng Streptavidin 61SAXLB Cis-Bio Int. and 18 ng anti-phosphotyrosine Mab PT66-Europium Cryptate per well. After 2 hours of incubation at room temperature, reading is carried out at 2 wavelengths 620 nm and 665 nm in a reader for the TRACE/HTRF technique and the percentage inhibition is calculated according to the 665/620 ratios.
A general note: In TR-FRET formats the signal depends on donor and acceptor labels being close together.

Another series deals with T2, MET (Homo sapiens, UniProt P08581).
T2 construct: endogenous in cells; host or cells: MKN45 cells
T2 sequence (P08581 25-1390): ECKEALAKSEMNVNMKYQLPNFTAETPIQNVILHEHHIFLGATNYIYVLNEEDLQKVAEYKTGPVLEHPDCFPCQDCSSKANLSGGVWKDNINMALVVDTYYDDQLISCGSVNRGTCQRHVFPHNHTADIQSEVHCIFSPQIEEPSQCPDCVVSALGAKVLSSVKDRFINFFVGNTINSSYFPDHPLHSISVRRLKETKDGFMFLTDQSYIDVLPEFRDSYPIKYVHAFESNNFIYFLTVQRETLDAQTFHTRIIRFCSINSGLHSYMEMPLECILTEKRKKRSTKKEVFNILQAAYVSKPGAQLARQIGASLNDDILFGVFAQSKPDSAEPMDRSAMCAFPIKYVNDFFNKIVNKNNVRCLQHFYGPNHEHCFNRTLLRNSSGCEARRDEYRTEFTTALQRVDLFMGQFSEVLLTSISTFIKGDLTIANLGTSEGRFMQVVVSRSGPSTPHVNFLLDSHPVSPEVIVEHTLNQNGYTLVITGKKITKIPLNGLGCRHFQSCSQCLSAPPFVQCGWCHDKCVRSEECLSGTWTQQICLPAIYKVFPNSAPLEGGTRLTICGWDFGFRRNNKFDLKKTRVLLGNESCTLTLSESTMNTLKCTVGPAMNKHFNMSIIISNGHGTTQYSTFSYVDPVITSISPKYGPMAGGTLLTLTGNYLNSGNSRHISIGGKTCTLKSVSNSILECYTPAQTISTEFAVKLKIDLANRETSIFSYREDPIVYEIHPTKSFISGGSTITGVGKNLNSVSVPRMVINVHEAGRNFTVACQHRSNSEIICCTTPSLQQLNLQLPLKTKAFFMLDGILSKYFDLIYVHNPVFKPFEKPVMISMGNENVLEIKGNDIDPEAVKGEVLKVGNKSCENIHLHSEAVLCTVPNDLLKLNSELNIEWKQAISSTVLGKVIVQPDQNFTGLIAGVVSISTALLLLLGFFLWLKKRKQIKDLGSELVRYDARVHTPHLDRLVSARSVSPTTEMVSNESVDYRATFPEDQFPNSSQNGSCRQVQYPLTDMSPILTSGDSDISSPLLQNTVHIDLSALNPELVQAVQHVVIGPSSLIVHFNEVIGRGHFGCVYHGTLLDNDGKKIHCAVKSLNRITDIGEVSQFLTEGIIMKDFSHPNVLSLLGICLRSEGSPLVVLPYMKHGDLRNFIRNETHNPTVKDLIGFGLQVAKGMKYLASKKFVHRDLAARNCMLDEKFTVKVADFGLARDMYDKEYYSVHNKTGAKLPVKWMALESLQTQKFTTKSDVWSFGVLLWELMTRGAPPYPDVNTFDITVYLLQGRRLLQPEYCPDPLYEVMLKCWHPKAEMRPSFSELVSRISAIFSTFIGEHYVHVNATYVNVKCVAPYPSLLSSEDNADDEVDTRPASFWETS
As to the kind of experiment: Test C: inhibition of the autophosphorylation of MET, ELISA technique (pppY1230, 1234, 1235), MKN45 cells. Format: cell-based. Here is the method: C) Inhibition of the Autophosphorylation of MET; ELISA Technique (pppY1230, 1234, 1235)
a) Cellular lysates: Sow the MKN45 cells in a 96-well plate (Cell coat BD polylysine) at 20 000 cells/well under 200 μl of medium RPMI+10% FCS+1% L-glutamine. Leave to adhere to the incubator for 24 h.
The cells are treated on the day after sowing with the products at 6 concentrations in duplicate for 1 h. At least 3 control wells are treated with the same amount of final DMSO.
Dilution of the products: Stock at 10 mM in pure DMSO—range from 10 mM to 30 μM with steps of 3 of pure DMSO—Intermediate dilutions to 1/50 in culture medium then taking of 10 μl added directly to the cells (200 μl): final range from 10000 to 30 nM.
At the end of incubation, carefully remove the supernatant and rinse with 200 μl of PBS. Then put 100 μl of lysis buffer directly in the wells on ice and incubate at 4° C. for 30 minutes. Lysis buffer: 10 mM Tris, HCl pH7.4, 100 mM NaCl, 1 mM EDTA, 1 mM EGTA, 1% Triton X-100, 10% glycerol, 0.1% SDS, 0.5% deoxycholate, 20 mM NaF, 2 mM Na3VO4, 1 mM PMSF and antiprotease cocktail.
The 100 μl of lysates are transferred to a V-bottomed polypropylene plate and ELISA is performed next or the plate is frozen at −80° C.
b) ELISA PhosphoMET BioSource Kit KH00281
In each well of the plate from the kit, add 70 μl of dilution buffer from the kit+30 μL of cell lysate or 30 μl of lysis buffer for the blank. Incubate for 2 h at room temperature, stirring gently.
Rinse the wells 4 times with 400 μl of washing buffer from the kit. Incubate with 100 μl of anti-phospho MET antibodies for 1 h at room temperature.
Rinse the wells 4 times with 400 μl of washing buffer from the kit. Incubate with 100 μl of anti-rabbit HRP antibodies for 30 minutes at room temperature (except for the wells with chromogen only).
Rinse the wells 4 times with 400 μl of washing buffer from the kit. Add 100 μL of chromogen and incubate for 30 minutes in the dark at room temperature.
Stop the reaction with 100 μl of stop solution. Read at once at […] 0.1 second in the Wallac Victor plate reader.
The products of formula (I) as defined above show cellular activity in this test between 10 nM and 10 μM.

RON, sequence (Q04912 25-1400): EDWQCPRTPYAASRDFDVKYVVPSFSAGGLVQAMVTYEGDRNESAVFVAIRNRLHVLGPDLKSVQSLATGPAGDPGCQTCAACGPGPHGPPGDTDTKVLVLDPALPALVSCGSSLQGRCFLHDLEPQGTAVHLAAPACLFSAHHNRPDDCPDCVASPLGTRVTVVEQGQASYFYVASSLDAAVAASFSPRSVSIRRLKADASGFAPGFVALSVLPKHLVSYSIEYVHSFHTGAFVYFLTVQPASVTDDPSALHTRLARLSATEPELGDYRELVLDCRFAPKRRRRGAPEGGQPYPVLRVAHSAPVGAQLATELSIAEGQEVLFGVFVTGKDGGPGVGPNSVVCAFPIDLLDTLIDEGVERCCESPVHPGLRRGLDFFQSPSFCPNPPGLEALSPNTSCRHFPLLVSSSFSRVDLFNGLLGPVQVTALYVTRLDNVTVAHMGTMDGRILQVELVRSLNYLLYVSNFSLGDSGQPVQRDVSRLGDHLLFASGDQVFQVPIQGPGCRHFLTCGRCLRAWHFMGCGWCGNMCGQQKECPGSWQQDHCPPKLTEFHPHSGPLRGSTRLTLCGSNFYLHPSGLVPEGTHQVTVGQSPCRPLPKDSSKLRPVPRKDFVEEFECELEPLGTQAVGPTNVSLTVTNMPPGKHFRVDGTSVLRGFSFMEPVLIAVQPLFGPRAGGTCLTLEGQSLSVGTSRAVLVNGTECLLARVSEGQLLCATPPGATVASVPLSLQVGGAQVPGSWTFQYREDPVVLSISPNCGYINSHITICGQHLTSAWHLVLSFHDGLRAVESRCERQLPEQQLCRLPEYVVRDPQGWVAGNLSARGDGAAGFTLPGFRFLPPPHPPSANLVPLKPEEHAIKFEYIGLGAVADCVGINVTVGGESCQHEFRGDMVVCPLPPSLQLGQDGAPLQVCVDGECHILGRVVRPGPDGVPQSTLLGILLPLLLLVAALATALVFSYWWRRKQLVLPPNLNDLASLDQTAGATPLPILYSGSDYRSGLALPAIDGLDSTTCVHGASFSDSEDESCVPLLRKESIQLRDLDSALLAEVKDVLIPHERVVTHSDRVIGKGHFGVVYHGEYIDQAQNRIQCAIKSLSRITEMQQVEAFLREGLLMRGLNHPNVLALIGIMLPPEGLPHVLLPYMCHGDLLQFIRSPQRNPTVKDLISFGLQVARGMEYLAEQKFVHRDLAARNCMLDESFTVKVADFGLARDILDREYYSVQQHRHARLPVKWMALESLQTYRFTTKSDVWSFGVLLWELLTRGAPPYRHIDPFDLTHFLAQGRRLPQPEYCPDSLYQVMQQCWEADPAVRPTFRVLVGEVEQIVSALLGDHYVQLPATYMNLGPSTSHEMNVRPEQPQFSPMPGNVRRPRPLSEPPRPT

Turning to `O=C(NCCN1CCOCC1)Nc1nc2ccc(OCc3c(Cl)cccc3Cl)cc2[nH]1` [Example 1, 1-{6-[(2,6-dichlorobenzyl)oxy]-1H-benzimidazol-2-yl}-3-(2-morpholin-4-ylethyl)urea], the melting point – broadly, the temperature of the solid-liquid transition – was in the range of 256 to 259 °C. The 50% inhibitory concentration (IC50) (commonly the concentration that inhibits the measured activity by half) at RON lay within 500 to 10000 nM. The same molecule displayed an IC50 with MKN45 cells of over 10000 nM. The 50% inhibitory concentration (IC50) against c-MET was under 100 nM.

As to `O=C(NCCCN1CCOCC1)Nc1nc2ccc(OCc3c(Cl)cccc3Cl)cc2s1` [Example 11, 1-{6-[(2,6-dichlorobenzyl)oxy]-1,3-benzothiazol-2-yl}-3-(3-morpholin-4-ylpropyl)urea], the melting point is 162 to 166 °C. The half-maximal inhibitory concentration (IC50) at RON was in the range of 500 to 10000 nM. The molecule further had an IC50 with MKN45 cells of over 10000 nM. In addition, on c-MET, the IC50 was under 100 nM.

With `O=C(NCCN1CCOCC1)Nc1nc2ccc(OCc3c(F)cccc3F)cc2s1` [Example 13, 1-{6-[(2,6-difluorobenzyl)oxy]-1,3-benzothiazol-2-yl}-3-(2-morpholin-4-ylethyl)urea], the melting point was determined as 219 °C. At RON, this molecule gave an IC50 of 500 to 10000 nM. This molecule also yielded a 50% inhibitory concentration (IC50) with MKN45 cells of over 10000 nM. The same molecule came in with a 50% inhibitory concentration (IC50) against c-MET of under 100 nM.

`CC(Oc1ccc2nc(NC(=O)NCCN3CCOCC3)sc2c1)c1ccccc1` (stereo not shown) [Example 14, 1-(2-morpholin-4-ylethyl)-3-[6-(1-phenylethoxy)-1,3-benzothiazol-2-yl]urea] displayed a melting point of 161 °C. In addition, the IC50 against RON lay within 500 to 10000 nM. In the series on MKN45 cells, this molecule yielded a half-maximal inhibitory concentration (IC50) of over 10000 nM. On c-MET, this molecule had an IC50 of 100 to 10000 nM.

On to `O=C(NCCN1CCOCC1)Nc1nc2ccc(OCc3c(F)cccc3Cl)cc2s1` [Example 15, 1-{6-[(2-chloro-6-fluorobenzyl)oxy]-1,3-benzothiazol-2-yl}-3-(2-morpholin-4-ylethyl)urea], for which the melting point came out at 210 °C. Besides, the concentration for half-maximal inhibition (IC50) on RON is 500 to 10000 nM. Further, the half-maximal inhibitory concentration (IC50) in the series with MKN45 cells lay in the range of 500 to 10000 nM. This molecule came in with a 50% inhibitory concentration (IC50) at c-MET of under 100 nM.

As to `CC(Oc1cc2sc(N)nc2cc1F)c1c(Cl)ccc(F)c1Cl` (stereo not shown) [Example 30, 6-[1-(2,6-dichloro-3-fluorophenyl)ethoxy]-5-fluoro-1,3-benzothiazol-2-amine], the melting point turned out to be 223 °C. At RON, this molecule gave an IC50 of 500 to 10000 nM. The molecule also gave an IC50 in the series with MKN45 cells of over 10000 nM. Also, the IC50 against c-MET was under 100 nM.

Take `CC(Oc1ccc2nc(NC(=O)NCCN3CCOCC3)sc2c1)c1cc(F)cc(F)c1` (stereo not shown) [Example 62, 1-{6-[1-(3,5-difluorophenyl)ethoxy]-1,3-benzothiazol-2-yl}-3-(2-morpholin-4-ylethyl)urea]: the melting point worked out at 179 °C. The IC50 against RON lay in the range of 500 to 10000 nM. Further, the IC50 in the series with MKN45 cells is over 10000 nM. At c-MET, this molecule displayed an IC50 of 100 to 10000 nM.

In turn, `COCCN(C)C(=O)Nc1nc2cc(F)c(OC(C)c3c(Cl)ccc(F)c3Cl)cc2s1` (stereo not shown) [Example 93, 3-{6-[1-(2,6-dichloro-3-fluorophenyl)ethoxy]-5-fluoro-1,3-benzothiazol-2-yl}-1-(2-methoxyethyl)-1-methylurea] gave a melting point of 62 to 67 °C. In addition, the IC50 against MET was 500 to 10000 nM. The half-maximal inhibitory concentration (IC50) in the series with MKN45 cells lay within 500 to 10000 nM. This molecule also gave a half-inhibitory concentration (IC50) against c-MET of under 100 nM.

Regarding `Cc1cc2nc(NC(=O)NCCN3CCOCC3)sc2cc1OC(C)c1c(Cl)ccc(F)c1Cl` (stereo not shown) [Example 107, 1-{6-[1-(2,6-dichloro-3-fluorophenyl)ethoxy]-5-methyl-1,3-benzothiazol-2-yl}-3-[2-(morpholin-4-yl)ethyl]urea], the melting point lay within 270 to 276 °C. In addition, the IC50 against MET was under 500 nM. This molecule returned a half-maximal inhibitory concentration (IC50) in the series with MKN45 cells of 500 to 10000 nM. For the same molecule, the concentration for half-maximal inhibition (IC50) against c-MET was under 100 nM.

`CCC(Oc1ccc2nc(NC(=O)NCCN3CCOCC3)sc2c1)c1c(Cl)cccc1Cl` (stereo not shown) [Example 122, 1-{6-[1-(2,6-dichlorophenyl)propoxy]-1,3-benzothiazol-2-yl}-3-[2-(morpholin-4-yl)ethyl]urea] showed a melting point of 200 °C. The same molecule returned an IC50 against MET of 500 to 10000 nM. In the series on MKN45 cells, this molecule displayed an IC50 of 500 to 10000 nM. The concentration for half-maximal inhibition (IC50) against c-MET was under 100 nM.
